Laboratory results: ChEMBL document CHEMBL1151342, “Psorospermin, a new antileukemic xanthone from Psorospermum febrifugum” (1980)
Values after ≈ are worked out from the molar mass of the structure shown. Active and inactive are the calls of the source. The rule behind the calls is not given here.

Experiments:
Type in all cases: functional
P388 = experiment: In vivo antitumor activity against mouse P388 cells at 8 mg/kg
KB = experiment: Cytotoxicity against human KB cells; conditions: read-out: ED50 (the source's name)
Echinoidea = experiment: Inhibition of mitosis in sea urchin egg at 1 uM

In the case of COc1cc2c(c3oc4c(O)cccc4c(=O)c13)C[C@H]([C@@]1(C)CO1)O2 [PSOROSPERMIN], the T/C (P388) was 158%, the EC50 (KB) was 0.1 µg/mL (≈ 0.294 µM) and the Activity (Echinoidea) was “Active”.
